Experiment: gradient 5% acetonitrile 3 min, to 50% in 2 min, to 85% in 15 min, held 3 min, 100 µL/min
Settings: column: Zorbax Extend-C18 2.1 x 50 mm; eluents: water / acetonitrile, 0.1% formic acid
Outline: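 Data were gathered over 3 months by HPLC coupled to a quadrupole time-of-flight mass spectrometer, operated in positive and negative ionization mode. Mixtures of ~100 pure standards ran on a Zorbax Extend-C18 column (2.1 × 50 mm, 1.8 μm) at 100 μL/min, with water and acetonitrile each containing 0.1% formic acid and dead and dwell volumes of 40 μL and 900 μL. Retention time was read from adduct peaks picked by computer and checked manually.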

| SMILES | RP-LC retention time [s] |
| --- | --- |
| COCCCNC(=O)C1CCN(c2cncnc2N2CCOCC2)CC1 | 550 |
| CN1CCN(C(CNC(=O)C(=O)Nc2ccc(Cl)cc2)c2ccc3c(c2)OCO3)CC1 (configuration not stated) | 716 |
| Cc1c(S(=O)(=O)N2CCCC(C)C2)c(C)n(C)c1C(=O)Nc1cccc(F)c1 (configuration not stated) | 1100 |
| O=C(c1ccco1)N1CCC(n2c(C3CCCC3)nc3cccnc32)C1 (configuration not stated) | 625 |
| CCC(C)NC(=O)c1cc2c(s1)N(CC1CC1)CCCC2 (configuration not stated) | 1090 |
| Cc1ccc(CC#N)c(-c2c(CC#N)ccc(C)c2C)c1C | 1170 |
| Cc1ccc(CNC(=O)C2CCN(c3cn[nH]c(=O)c3)C2)o1 (configuration not stated) | 626 |
| COc1ccc(N2CCN(CC(=O)N3CCC(C(N)=O)CC3)CC2)cc1 | 885 |
| Cc1cc(C2CCCN2C(=O)Nc2ccc(C)c(Cl)c2)no1 (configuration not stated) | 906 |
| CC(C)CN1CCn2cc(S(=O)(=O)Nc3cccc(F)c3)cc2C1=O | 786 |
| CC(=O)N1CCC2(CC1)CC(N(C(=O)NC(C)C)C1CC1)CCO2 (configuration not stated) | 653 |
| CCN(CC)S(=O)(=O)c1ccc2nc(NCc3cc(F)cc(F)c3)cnc2c1 | 1060 |
| CCn1c(SCC(=O)N2CCCC2)nnc1-c1ccc2c(c1)OCCCO2 | 666 |
| COc1ccc(-c2nnc(CC(=O)N3CCC4(CC3)OCCO4)o2)cc1 | 681 |
| COc1ccc(S(=O)(=O)NCc2ccc3c(c2)CCN3C(C)=O)cc1Cl | 779 |
| O=S(=O)(c1ccc2c(c1)CCC2)N1CCC2(CC1)CC(Cc1nc(-c3cnccn3)no1)CCO2 (configuration not stated) | 1010 |
| Cc1ccc(-c2[nH]ncc2CN2CCC3(CC2)CC(O)CCO3)cc1 (configuration not stated) | 588 |
| COc1ccc(C(C)NC(=O)C2CCN(c3cnc4nccnc4c3)CC2)cc1OC (configuration not stated) | 664 |
| Cc1cccc(N2CCN(c3cc(C)nc4c5c(C)cc(C)nc5nn34)CC2)n1 | 561 |
| CC(C)C(=O)Nc1nc(-c2ccc3c(c2)N(C)C(=O)C(C)O3)cs1 (configuration not stated) | 822 |
| COc1ccc(F)cc1S(=O)(=O)N1CCn2c(nn(C)c2=O)C1 | 654 |
| CN1CCN(CCNC(=O)CC2CCN(C(=O)c3cc4cc(Cl)ccc4[nH]3)CC2)CC1 | 618 |
| CNCc1ccc(-c2cc(Cl)cc(Cl)c2)o1 | 658 |
| Fc1cc(F)c2nc(NCCCn3ccnc3)sc2c1 | 548 |
| CCCNC(=O)C1CCCN(c2ncnc3c2nc2n3CCCCC2)C1 (configuration not stated) | 650 |
| CCc1sc(NC(=O)c2cc3c([nH]c2=O)CCCC3=O)nc1-c1ccc2c(c1)CCCC2 | 1170 |
| CC(C)(C)C(=O)N1CCC(C(=O)NCc2ccc3c(c2)OCO3)CC1 | 712 |
| CN(CC1CCOCC1)C(=O)Nc1ccccc1F | 720 |

Next, values leading:

| RP-LC retention time [s] | SMILES |
| --- | --- |
| 884 | O=C(Nc1cccnc1)c1cc(-c2ccnc(F)c2)ccc1OCc1ccccc1 |
| 1030 | O=C(Nc1ccc2c(c1)CCN2S(=O)(=O)c1ccccc1)Nc1ccccc1Cl |
| 704 | O=C(NCCn1nnc2cc(C(=O)N3CCCC3)ccc21)Nc1ccc(F)c(Cl)c1 |
| 638 | O=C(CCc1cc2ccccc2[nH]c1=O)N1CCN(C(=O)c2ccco2)CC1 |
| 1150 | Cc1cccc(-c2noc(Cn3c(=O)n(Cc4ccccc4Cl)c(=O)c4sccc43)n2)c1 |
| 736 | O=C(NCc1cccs1)C1CCN(C(=O)c2ncn3c2COC(c2ccc(F)cc2)C3)CC1 (configuration not stated) |
| 918 | CN(C)S(=O)(=O)c1ccc2c(c1)N(CC(=O)NCCc1ccccc1)C(=O)C1CCCCN21 (configuration not stated) |
| 954 | Cc1ccc2c(c1)N(S(C)(=O)=O)CCC(C(=O)NCc1ccc(Cl)cc1)O2 (configuration not stated) |
| 695 | Cn1c(=O)c2ccn(CC(=O)Nc3ccc(F)cc3Cl)c2n(C)c1=O |
| 712 | CCNC(=O)c1sc2nc(-c3ccccc3)c(NCCOC)n2c1C |
| 656 | Cn1c(=O)n([C@H]2CCN(C(=O)c3ccco3)C2)c2ncccc21 |
| 675 | CCOC(=O)c1ccc(Nc2c(C(=O)N3CCC(C)CC3)cnc3nc(C)ccc23)cc1 |
| 928 | Cc1ccc(Oc2nccn3c(=O)n(CC(=O)NCCCc4ccccc4)nc23)cc1 |
| 1100 | Cc1ccccc1-c1noc(Cn2cnc3c(cnn3-c3cc(Cl)ccc3C)c2=O)n1 |
| 1090 | O=C(NCCC1=CCCCC1)C1CCN(C(=O)c2cccn2-c2cccnc2)CC1 |
| 649 | CC(C)n1c(=O)c(Nc2cccc(Cl)c2)nc2ccncc21 |
| 574 | O=C(NCCN1CCCC1)c1cccc(-c2ccc(N3CCCCCC3)nc2)c1 |
| 842 | CCN(CC)S(=O)(=O)c1ccc2c(c1)CC(C(=O)NCCc1ccc(C)cc1)N2C(C)=O (configuration not stated) |
| 636 | Cc1ccc(C(=O)N(CCc2cscn2)Cc2cccnc2)cc1C |
| 1010 | O=C(NCC1CC1)c1nnn(Cc2ccc(Cl)cc2)c1-n1cccc1 |

| RP-LC retention time [s] | SMILES |
| --- | --- |
| 674 | O=C(NCCn1ncccc1=O)Nc1ccc(OC(F)(F)F)cc1 |
| 786 | CCC(=O)N1CCc2cc(N3CC(C(=O)Nc4ccc(C)cc4)CC3=O)ccc21 (configuration not stated) |
| 1170 | CCc1cccc(NC(=O)Cn2c(C)nc3c(sc4nc(-c5ccccc5)ccc43)c2=O)c1 |
| 675 | O=c1n(Cc2ccccc2)nc2ccc(S(=O)(=O)N3CCCC3)cn12 |
| 784 | COc1ccc(NC(=O)Nc2nccn(-c3ccccc3)c2=O)cc1OC |
| 627 | CC1CCCCN1CCCNC(=O)CCCn1c(=O)c2cccn2c2ccccc21 (configuration not stated) |
| 857 | CC1=C(c2ccc(C)cc2)S(=O)(=O)N=C1N1CCCN(C(=O)NC2CCCC2)CC1 |
| 990 | CCCN1CCn2cc(S(=O)(=O)NCc3ccc(OC)cc3)cc2C1=O |
| 684 | COc1cc(-c2nc3c(C)cccn3c2Nc2ccc(C)cc2)ccc1O |
| 753 | O=C(CCc1c(-c2ccc(Br)cc2)nc2ccccn12)NCCC1=CCCCC1 |
| 877 | COc1ccc(C(=O)Nc2nc(-c3ccc4c(c3)NC(=O)C(C)O4)cs2)cc1 (configuration not stated) |
| 758 | O=C1CCN(S(=O)(=O)c2ccccc2)CCCN(C(=O)C2(c3ccccc3)CC2)CCN1 |
| 642 | O=C(CCCn1c(=O)c2cccn2c2ccc(F)cc21)Nc1ccc2c(c1)OCCO2 |
| 816 | CC1Oc2ccc(S(=O)(=O)N3CCC(C(=O)NCc4ccccc4Cl)CC3)cc2NC1=O (configuration not stated) |
| 1020 | CC(C)c1cc(C(=O)Nc2ccccc2F)no1 |
| 857 | O=C(Nc1ccc2c(c1)N(C(=O)c1cccs1)CC2)c1c(F)cccc1Cl |
| 1010 | O=c1n(Cc2nc(-c3ccc(F)c(Br)c3)no2)nc2ccc(-c3ccccc3)nn12 |
| 1300 | COc1nc2ccccc2nc1N1CCCC(C(=O)Nc2cccc(Br)c2)C1 (configuration not stated) |
| 634 | c1ccc(-n2nnnc2SCCNCc2ccc3c(c2)OCCO3)cc1 |

Reference: the METLIN SMRT retention time set (Domingo-Almenara et al. 2019)
